Experimental data reported in patent US20120004244A1, “Bis Aromatic Compounds for Use as LTC4 Synthase Inhibitors” (BIOLIPOX AB, priority 2009, published 2012).

Each compound was assayed against T1, Recombinant human LTC4 synthase (Homo sapiens, UniProt Q16873) (assay: LTC4 synthase in vitro assay (LTA4 to LTC4, HTRF detection)). Settings: not given.
T1 construct: made in house; host or cells: Pichia pastoris ('Piccia pastoralis' [sic])
T1 sequence (Q16873 1-150): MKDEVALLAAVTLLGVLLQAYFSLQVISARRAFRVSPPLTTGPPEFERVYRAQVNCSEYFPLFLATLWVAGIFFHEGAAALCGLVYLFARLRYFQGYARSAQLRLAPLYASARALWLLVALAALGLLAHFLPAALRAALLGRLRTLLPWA
Assay type: biochemical
Protocol: In the assay, LTC4 synthase catalyses the reaction where the substrate LTA4 is converted to LTC4. Recombinant human LTC4 synthase is expressed in Piccia pastoralis and the purified enzyme is dissolved in 25 mM tris-buffer pH 7.8 supplemented with 0.1 mM glutathione (GSH) and stored at −80° C. The assay is performed in phosphate buffered saline (PBS) pH 7.4 and 5 mM GSH in 384-well plates.
The following is added chronologically to each well:
1.48 μL LTC4 synthase in PBS with 5 mM GSH. The total protein concentration in this solution is 0.5 μg/mL. 2. 1 μL inhibitor in DMSO (final concentration 10 μM). 3. Incubation of the plate at room temperature for 10 min. 4. 1 μL LTA4 (final concentration 2.5 μM). 5. Incubation of the plate at room temperature for 5 min. 6. 10 μL of the incubation mixture is analysed using homogenous time resolved fluorescent (HTRF) detection.

SMILES | IC50 [nM]
CN(c1ccc(Cl)cc1)c1ccc(C(=O)c2ccc(NS(=O)(=O)c3ccc(C(F)(F)F)cc3)c(C(=O)O)c2)nc1 [4:4, 5-{5-[(4-Chlorophenyl)(methyl)amino]picolinoyl}-2-(4-trifluoromethylphenylsulfon-amido)benzoic acid] | 43
CN(c1ccc(Cl)cc1)c1ccc(C(=O)c2ccc(Oc3ccccc3)c(C(=O)O)n2)cc1 [9:1, 6-{4-[(4-Chlorophenyl)(methyl)amino]benzoyl}-3-phenoxypicolinic acid] | 742
CN(c1ccc(Cl)cc1)c1cnc(C(=O)c2ccc(Oc3ccccc3)c(C(=O)O)c2)nc1 [10:3, 5-{5-[(4-Chlorophenyl)(methyl)amino]pyrimidine-2-carbonyl}-2-phenoxybenzoic acid] | 300
CN(c1ccc(Cl)cc1)c1ccc(C(=O)c2ccc(NC(=O)c3cccc(C(F)(F)F)c3)c(C(=O)O)c2)nc1 [3:39, 5-{5-[(4-chlorophenyl)(methyl)amino]picolinoyl}-2-(3-trifluoromethylbenzamido)-benzoic acid] | 91
COc1ccccc1C(=O)c1ccc(C(=O)c2ccc(N(C)c3ccc(Cl)cc3)cn2)cc1C(=O)O [5:8, 5-{5-[(4-Chlorophenyl)(methyl)amino]picolinoyl}-2-(2-methoxybenzoyl)benzoic acid] | 154
CN(c1ccc(Cl)cc1)c1ccc(C(=O)c2ccc(C(=O)c3cccc(C(F)(F)F)c3)c(C(=O)O)c2)nc1 [5:27] | 54
O=C(c1ccc(-n2nncc2-c2ccccn2)c(C(=O)O)c1)c1ccc(N(CC2CC2)c2ccc(Cl)cc2)cn1 [17:6, 5-{5-[(4-Chlorophenyl)(cyclopropylmethyl)amino]picolinoyl}-2-(5-(pyridin-2-yl)-1,2,3-triazol-1-yl)benzoic acid] | 107
CN(c1ccc(Cl)cc1)c1ccc(C(=O)c2ccc(C(=O)c3ccc(F)cc3)c(C(=O)O)c2)nc1 [5:15, 5-{5-[(4-Chlorophenyl)(methyl)amino]picolinoyl}-2-(4-fluorobenzoyl)benzoic acid] | 126
CN(c1ccc(Cl)cc1)c1ccc(C(=O)c2ccc(-c3cccc(-c4ccccc4)c3)c(C(=O)O)c2)nc1 [21:9, 4-{5-[(4-Chlorophenyl)(methyl)amino]picolinoyl}[1,1′;2′,1″]terphenyl-2-carboxylic acid[1,1′;3′,1″]terphenyl-2-carboxylic acid] | 511
CN(c1ccc(Cl)cc1)c1ccc(C(=O)c2ccc(-n3nc(-c4ccc(Cl)cc4)cc3C(F)(F)F)c(C(=O)O)c2)nc1 [18:6, 5-{5-[(4-Chlorophenyl)(methyl)amino]picolinoyl}-2-[3-(4-chlorophenyl)-5-trifluoromethylpyrazol-1-yl]benzoic acid] | 115
CN(c1ccc(Cl)cc1)c1ccc(C(=O)c2ccc(-c3ccccc3-c3ccccc3)c(C(=O)O)c2)nc1 [21:8, 4-{5-[(4-Chlorophenyl)(methyl)amino]picolinoyl}[1,1′;2′,1″]terphenyl-2-carboxylic acid] | 244
COc1ccc(C(=O)Nc2ccc(C(=O)c3ccc(N(C)c4ccc(Cl)cc4)cn3)cc2C(=O)O)cc1 [3:4, 5-{5-[(4-Chlorophenyl)(methyl)amino]picolinoyl}-2-(4-methoxybenzamido)-benzoic acid] | 23
CN(c1ccc(Cl)cc1)c1ccc(C(=O)c2ccc(OCc3ccc(Cl)cc3)c(C(=O)O)c2)nc1 [12:3, 2-(4-Chlorobenzyloxy)-5-{5-[(4-chlorophenyl)(methyl)amino]picolinoyl}benzoic acid] | 364
COc1ccc(C(=O)c2ccc(C(=O)c3ccc(N(CC4CC4)c4ccc(Cl)cc4F)cn3)cc2C(=O)O)cc1 [5:5] | 46
CN(c1ccc(Cl)cc1)c1ccc(C(=O)c2ccc(-c3ccccc3OCC3CC3)c(C(=O)O)c2)nc1 [21:5, 4-{5-[(4-Chlorophenyl)(methyl)amino]picolinoyl}-2′-(cyclopropylmethoxy)-biphenyl-2-carboxylic acid] | 384
CN(c1ccc(Cl)cc1)c1ccc(C(=O)c2ccc(NC(=O)c3cccc4c3OC(F)(F)O4)c(C(=O)O)c2)nc1 [3:18, 5-{5-[(4-Chlorophenyl)(methyl)amino]picolinoyl}-2-[2,3-(difluoromethylene-dioxy)benzamido]benzoic acid] | 112
CN(c1ccc(Cl)cc1)c1ccc(C(=O)c2ccc(-n3ccnc3-c3ccccc3)c(C(=O)O)c2)nc1 [19:2, 5-{5-[(4-Chlorophenyl)(methyl)amino]picolinoyl}-2-(2-phenylimidazol-1-yl)benzoic acid] | 486
O=C(c1ccc(Oc2ccccc2)c(C(=O)O)c1)c1ccc(-c2cccc(C(F)(F)F)c2)cn1 [7:3, 2-Phenoxy-5-[5-(3-trifluoromethylphenyl)picolinoyl]benzoic acid] | 700
O=C(c1ccc(N(CC2CC2)c2ccc(Cl)cc2)cc1)c1cc(C(=O)O)c(Oc2ccccc2)cn1 [8:1, 2-{4-[(4-Chlorophenyl)(cyclopropylmethyl)amino]benzoyl}-5-phenoxyisonicotinic acid] | 82
CCOc1ccc(C(=O)c2ccc(C(=O)c3ccc(N(C)c4ccc(Cl)cc4)cn3)cc2C(=O)O)cc1OCC [5:14, 5-{5-[(4-Chlorophenyl)(methyl)amino]picolinoyl}-2-(3,4-diethoxybenzoyl)-benzoic acid] | 77
CN(c1ccc(Cl)cc1)c1ccc(C(=O)c2ccc(NS(=O)(=O)c3ccc(Cl)cc3)c(C(=O)O)c2)nc1 [4:5, 5-{5-[(4-Chlorophenyl)(methyl)amino]picolinoyl}-2-(4-chlorophenylsulfonamido)-benzoic acid] | 33
COc1ccc(Nc2ccc(C(=O)c3ccc(N(C)c4ccc(Cl)cc4)cn3)cc2C(=O)O)cc1 [2:13, 5-{5-[(4-Chlorophenyl)(methyl)amino]picolinoyl}-2-(4-methoxyphenylamino)benzoic acid] | 160
O=C(c1ccc(Oc2ccc3c(c2)OCO3)c(C(=O)O)c1)c1ccc(N(CC2CC2)c2ccc(Cl)cc2)cn1 [1:31, 5-{5-[(4-Chlorophenyl)(cyclopropylmethyl)amino]picolinoyl}-2-(3,4-methylenedioxyphenoxy)benzoic acid] | 142
O=C(c1ccc(Oc2ccccc2Oc2ccc(F)cc2F)c(C(=O)O)c1)c1ccc(N(CC2CC2)c2ccc(Cl)cc2)cn1 [1:42, 5-{5-[(4-Chlorophenyl)(cyclopropylmethyl)amino]picolinoyl}-2-[2-(2,4-difluorophenoxy)phenoxy]benzoic acid] | 52

The remaining lines, values ahead:

IC50 [nM] | SMILES
69 | O=C(c1ccc(Oc2ccccc2)c(C(=O)O)c1)c1ccc(OCc2ccc(Cl)c(Cl)c2)cn1 [11:9, 5-[5-(3,4-Dichlorobenzyloxy)picolinoyl]-2-phenoxybenzoic acid]
48 | C#CCN(c1ccc(Cl)cc1)c1ccc(C(=O)c2ccc(Oc3ccccc3)c(C(=O)O)c2)nc1 [1:9, 5-{5-[(4-Chlorophenyl)(2-propynyl)amino]picolinoyl}-2-phenoxybenzoic acid]
11 | O=C(Nc1ccc(C(=O)c2ccc(N(CC3CC3)c3ccc(Cl)cc3)cn2)cc1C(=O)O)c1ccc2c(c1)OCCO2 [3:25, 5-{5-[(4-Chlorophenyl)(cyclopropylmethyl)amino]picolinoyl}-2-(3,4-ethylene-dioxybenzamido)benzoic acid]
158 | COc1cccc(Oc2ccc(C(=O)c3ccc(N(CC4CC4)c4ccc(Cl)cc4)cn3)cc2C(=O)O)c1 [1:30, 5-{5-[(4-Chlorophenyl)(cyclopropylmethyl)amino]picolinoyl}-2-(3-methoxyphenoxy)benzoic acid]
16 | O=C(Nc1ccc(C(=O)c2ccc(N(CC3CC3)c3ccc(Cl)cc3)cn2)cc1C(=O)O)c1ccc2c(c1)OC(F)(F)O2 [3:24, 5-{5-[(4-Chlorophenyl)(cyclopropylmethyl)amino]picolinoyl}-2-[3,4-(difluoromethylenedioxy)benzamido]benzoic acid]
25 | CN(c1ccc(Cl)cc1)c1ccc(C(=O)c2ccc(NC(=O)c3cc(Cl)ccc3O)c(C(=O)O)c2)nc1 [3:2, 2-(5-Chloro-2-hydroxybenzamido)-5-{5-[(4-chlorophenyl)(methyl)amino]-picolinoyl}benzoic acid]
132 | COc1ccccc1CNc1ccc(C(=O)c2ccc(N(C)c3ccc(Cl)cc3)cn2)cc1C(=O)O [2:8, 5-{5-[(4-Chlorophenyl)(methyl)amino]picolinoyl}-2-(2-methoxybenzylamino)benzoic acid]
166 | CN(c1ccc(Cl)cc1)c1ccc(C(=O)c2ccc(OCc3ccc4c(c3)OCO4)c(C(=O)O)c2)nc1 [12:5, 5-{5-[(4-Chlorophenyl)(methyl)amino]picolinoyl}2-(3,4-methylenedioxy-benzyloxy)benzoic acid]
140 | CN(c1ccc(Cl)cc1)c1ccc(C(=O)c2ccc(NC3CCCCC3)c(C(=O)O)c2)nc1 [2:4, 5-{5-[(4-Chlorophenyl)(methyl)amino]picolinoyl}cyclohexylaminobenzoic acid]
235 | Cc1cn(-c2ccc(C(=O)c3ccc(N(C)c4ccc(Cl)cc4)cn3)cc2C(=O)O)c(-c2ccccc2)n1 [19:1, 5-{5-[(4-Chlorophenyl)(methyl)amino]picolinoyl}-2-(4-methyl-2-phenylimidazol-1-yl)benzoic acid]
667 | CN(c1ccc(Cl)cc1)c1ccc(C(=O)c2ccc(Oc3ccccc3)c(C(=O)O)c2)cn1 [6:1]

Same assay, conditions: 5 min; total concentration of title compound in the assay 10 μM

SMILES | inhibition at 10 µM [%]
CN(c1ccc(Cl)cc1)c1ccc(C(=O)c2ccc(NS(=O)(=O)c3ccc(C(F)(F)F)cc3)c(C(=O)O)c2)nc1 [4:4, 5-{5-[(4-Chlorophenyl)(methyl)amino]picolinoyl}-2-(4-trifluoromethylphenylsulfon-amido)benzoic acid] | 100
CN(c1ccc(Cl)cc1)c1ccc(C(=O)c2ccc(Oc3ccccc3)c(C(=O)O)n2)cc1 [9:1, 6-{4-[(4-Chlorophenyl)(methyl)amino]benzoyl}-3-phenoxypicolinic acid] | 94
O=C(c1ccc(N(CC2CC2)c2ccc(Cl)cc2)cc1)c1cc(C(=O)O)c(Oc2ccccc2)cn1 [8:1, 2-{4-[(4-Chlorophenyl)(cyclopropylmethyl)amino]benzoyl}-5-phenoxyisonicotinic acid] | 99
CN(c1ccc(Cl)cc1)c1ccc(C(=O)c2ccc(NS(=O)(=O)c3ccc(Cl)cc3)c(C(=O)O)c2)nc1 [4:5, 5-{5-[(4-Chlorophenyl)(methyl)amino]picolinoyl}-2-(4-chlorophenylsulfonamido)-benzoic acid] | 100

Results, then the compound that gave them:

inhibition at 10 µM [%] | SMILES
99 | C#CCN(c1ccc(Cl)cc1)c1ccc(C(=O)c2ccc(Oc3ccccc3)c(C(=O)O)c2)nc1 [1:9, 5-{5-[(4-Chlorophenyl)(2-propynyl)amino]picolinoyl}-2-phenoxybenzoic acid]
100 | CN(c1ccc(Cl)cc1)c1ccc(C(=O)c2ccc(NC(=O)c3cc(Cl)ccc3O)c(C(=O)O)c2)nc1 [3:2, 2-(5-Chloro-2-hydroxybenzamido)-5-{5-[(4-chlorophenyl)(methyl)amino]-picolinoyl}benzoic acid]
94 | CN(c1ccc(Cl)cc1)c1ccc(C(=O)c2ccc(Oc3ccccc3)c(C(=O)O)c2)cn1 [6:1]
